From patent US9700547B2, “Use of 6-hydroxy-2-pyridones and derivatives thereof for preparing a pharmaceutical composition that acts by inhibiting the human uridine phosphorylase enzyme” (UNIÃO BRASILEIRA DE EDUCAÇÃO E ASSISTÊNCIA, MANTENEDORA DA …, priority 2013, dated 2017)

How the values were obtained:
[1] = biological target: T1, Human Phosphorylase Uridine 1 (hUP1) (Homo sapiens, UniProt Q16831); experiment: hUP1 enzymatic assay, inhibition at 1 μM (UV absorbance of uridine at 280 nm); format: biochemical; settings: 1 μM compound, 37° C.
Procedure: (§1) The enzymatic activity of the hUP1 is performed through the enzymatic essay using one spectrophotometer UV/visible where the absorbance reduction of uridine in 280 nm, for 1 min and at 37° C. was monitored.
For determining which inhibitors would be selected for determining the inhibition constant (Ki), one cut point of 1 μM was stipulated, where only those compounds that would inhibit more than 60% of the initial activity of the enzyme would be selected for this type of analysis (Table 1). From all compounds tested, 7 molecules had its inhibition above 60% with the concentration of 1 μM (Compounds c1, c2, c3, c4, c6, c12, and c13). All essays described on this patent application were performed for these compounds and for benzil acyclo uridine (BAU), in order to perform a direct comparison of the results achieved with the better in vitro inhibitor of the hUP1 described (standard).

[2] = biological target: T1, Human Phosphorylase Uridine 1 (hUP1); experiment: Ki and inhibition type from substrate saturation curves, double-reciprocal analysis; format: biochemical; settings: for Inhibiting type for phosphate: substrate Pi; for Inhibition type for uridine: substrate uridine
Procedure: as §1
For determining Ki for the selected inhibitors, we performed saturation curves where the concentration of one of the substrates is fixed next to the Km and the concentration of another, varied until the saturation in fixed-varying concentrations of each one of the inhibitors.
(I) v=VA/[Ka(1+I/Kii)+A(1+Kis)] (II) v=VA/[A(1+I/Kis)+Ka] (III)

[3] = biological target: hUP1 (Homo sapiens, UniProt Q16831); experiment: isothermal titration microcalorimetry (ITC), free enzyme; format: binding
Procedure: (§2) For determining the thermodynamic parameters (enthalpy variation—ΔH, entropy variation—ΔS, and free energy variation of Gibbs—ΔG) were performed compounds binding essays to the enzyme in different conditions: free enzyme, complexed enzyme with the substrate Pi, and the complexed enzyme with the product ribose-1-phosphate (R1P). For such analyses, it was used isothermal titration microcalorimetry (ITC) where the equipment monitors the difference of transferred heat, between the reference cell and the sample cell, when bindings are formed or broken during the binding process. The data analysis achieved was performed through the model One Set of Sites and the determination of ΔG and the dissociation constant (KD) were through the equations (IV) and (V) below, respectively: ΔG=ΔH−TΔS (IV) KD=1/Ka (V)

[4] = biological target: hUP1-Pi (Homo sapiens, UniProt Q16831); experiment: isothermal titration microcalorimetry (ITC), enzyme complexed with substrate Pi; format: binding
Procedure: as §2

[5] = biological target: hUP1-R1P (Homo sapiens, UniProt Q16831); experiment: isothermal titration microcalorimetry (ITC), enzyme complexed with product ribose-1-phosphate; format: binding
Procedure: as §2

Sequence of hUP1-Pi (Q16831 whole entry): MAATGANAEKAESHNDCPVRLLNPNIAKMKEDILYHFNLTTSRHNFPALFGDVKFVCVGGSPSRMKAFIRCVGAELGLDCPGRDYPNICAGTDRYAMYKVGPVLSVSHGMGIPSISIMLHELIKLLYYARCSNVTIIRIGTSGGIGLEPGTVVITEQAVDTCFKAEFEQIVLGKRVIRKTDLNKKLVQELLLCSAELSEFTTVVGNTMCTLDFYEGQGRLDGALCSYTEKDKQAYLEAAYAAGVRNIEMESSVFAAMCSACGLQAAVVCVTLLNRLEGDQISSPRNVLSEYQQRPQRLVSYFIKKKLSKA
Sequence of hUP1 (Q16831 whole entry): as above
Sequence of hUP1-R1P (Q16831 whole entry): as above
T1 sequence (Q16831 whole entry): as above

Cc1c(CN2CCCCC2)c(O)[nH]c(=O)c1C#N [Compound c5]
inhibition at 1 µM [1]: 49%

N#Cc1c(-c2ccccc2)cc(O)[nH]c1=O [Compound c7]
inhibition at 1 µM [1]: 42%

CCc1cc(O)[nH]c(=O)c1C#N [Compound c8]
inhibition at 1 µM [1]: 25%

CCN(CC)Cc1c(O)[nH]c(=O)c(C#N)c1C [Compound c9]
inhibition at 1 µM [1]: 25%

CCCN(CCC)Cc1c(O)[nH]c(=O)c(C#N)c1C [Compound c10]
inhibition at 1 µM [1]: 20%

Cc1c(Cc2ccccc2)c(O)[nH]c(=O)c1C#N [Compound c11]
inhibition at 1 µM [1]: 43%

O=c1[nH]cc(CNCCO)c(=O)[nH]1 [Compound c14]
inhibition at 1 µM [1]: 2%

Cc1c(CN(C)C)c(O)[nH]c(=O)c1C#N [c1]
Inhibition with 1 μM (%) [1]: 81%
Inhibiting type for phosphate [2]: Uncompetitive
Inhibition type for uridine [2]: Competitive
Kd [3]: 4.2 ± 0.602 µM
ΔG° [3]: -7.6 ± 1.1 kcal/mol
ΔH° [3]: -6.7 ± 0.2 kcal/mol
−TΔS (kcal/mol/deg) [3]: 0.8 ± 0.1 kcal/mol/deg
Kd [4]: 0.312 ± 0.073 µM
ΔG° [4]: -9.1 ± 2.1 kcal/mol
ΔH° [4]: -12 ± 0.2 kcal/mol
−TΔS (kcal/mol/deg) [4]: 2.6 ± 0.6 kcal/mol/deg
Kd ([5]; hUP1-R1P 50 μM): 7.4 ± 0.381 µM
ΔG° ([5]; hUP1-R1P 50 μM): -7.2 ± 0.4 kcal/mol
ΔH° ([5]; hUP1-R1P 50 μM): -22 ± 0.4 kcal/mol
−TΔS (kcal/mol/deg) ([5]; hUP1-R1P 50 μM): 14 ± 0.7 kcal/mol
Kd ([5]; hUP1-R1P 150 μM): 10 ± 1.32 µM
ΔG° ([5]; hUP1-R1P 150 μM): -7.0 ± 0.9 kcal/mol
ΔH° ([5]; hUP1-R1P 150 μM): -23 ± 0.1 kcal/mol
−TΔS (kcal/mol/deg) ([5]; hUP1-R1P 150 μM): 16 ± 2.1 kcal/mol

Cc1c(CNCCO)c(O)[nH]c(=O)c1C#N [c2]
Inhibition with 1 μM (%) [1]: 80%
inhibition at 1 µM [1]: > 60%
Inhibiting type for phosphate [2]: Uncompetitive
Inhibition type for uridine [2]: Competitive
Kd [3]: 2 ± 0.221 µM
ΔG° [3]: -8.0 ± 0.9 kcal/mol
ΔH° [3]: -23 ± 0.5 kcal/mol
−TΔS (kcal/mol/deg) [3]: 14 ± 1.5 kcal/mol/deg
Kd [4]: 0.151 ± 0.034 µM
ΔG° [4]: -9.5 ± 2.1 kcal/mol
ΔH° [4]: -16 ± 0.2 kcal/mol
−TΔS (kcal/mol/deg) [4]: 6.4 ± 1.4 kcal/mol/deg
Kd ([5]; hUP1-R1P 50 μM): 2.3 ± 0.423 µM
ΔG° ([5]; hUP1-R1P 50 μM): -8.0 ± 1.5 kcal/mol
ΔH° ([5]; hUP1-R1P 50 μM): -17 ± 0.6 kcal/mol
−TΔS (kcal/mol/deg) ([5]; hUP1-R1P 50 μM): 9.5 ± 1.7 kcal/mol
Kd ([5]; hUP1-R1P 150 μM): 3.8 ± 0.553 µM
ΔG° ([5]; hUP1-R1P 150 μM): -7.6 ± 1.1 kcal/mol
ΔH° ([5]; hUP1-R1P 150 μM): -30 ± 1.5 kcal/mol
−TΔS (kcal/mol/deg) ([5]; hUP1-R1P 150 μM): 23 ± 3.3 kcal/mol

N#Cc1ccc(O)[nH]c1=O [c12]
Inhibition with 1 μM (%) [1]: 67%
inhibition at 1 µM [1]: > 60%
Inhibiting type for phosphate [2]: Not Competitive
Inhibition type for uridine [2]: Not competitive
Kd [3]: 2.9 ± 0.554 µM
ΔG° [3]: -7.8 ± 1.5 kcal/mol
ΔH° [3]: -9.6 ± 0.3 kcal/mol
−TΔS (kcal/mol/deg) [3]: 1.7 ± 0.3 kcal/mol/deg
Kd ([5]; hUP1-R1P 50 μM): 0.108 ± 0.018 µM
ΔG° ([5]; hUP1-R1P 50 μM): -9.8 ± 1.6 kcal/mol
ΔH° ([5]; hUP1-R1P 50 μM): -15 ± 0.1 kcal/mol
−TΔS (kcal/mol/deg) ([5]; hUP1-R1P 50 μM): 5.7 ± 0.9 kcal/mol
Kd ([5]; hUP1-R1P 150 μM): 0.127 ± 0.048 µM
ΔG° ([5]; hUP1-R1P 150 μM): -9.7 ± 3.7 kcal/mol
ΔH° ([5]; hUP1-R1P 150 μM): -18 ± 0.5 kcal/mol
−TΔS (kcal/mol/deg) ([5]; hUP1-R1P 150 μM): 8.5 ± 3.2 kcal/mol

Cc1cc(O)[nH]c(=O)c1C#N [c13]
Inhibition with 1 μM (%) [1]: 62%
Inhibiting type for phosphate [2]: Not competitive
Inhibition type for uridine [2]: Not competitive
Kd [3]: 12 ± 1.82 µM
ΔG° [3]: -6.9 ± 1.0 kcal/mol
ΔH° [3]: -8.7 ± 0.7 kcal/mol
−TΔS (kcal/mol/deg) [3]: 1.7 ± 0.2 kcal/mol/deg
Kd ([5]; hUP1-R1P 50 μM): 1.3 ± 0.197 µM
ΔG° ([5]; hUP1-R1P 50 μM): -8.1 ± 1.2 kcal/mol
ΔH° ([5]; hUP1-R1P 50 μM): -27 ± 0.7 kcal/mol
−TΔS (kcal/mol/deg) ([5]; hUP1-R1P 50 μM): 19 ± 2.9 kcal/mol
Kd ([5]; hUP1-R1P 150 μM): 1.3 ± 0.435 µM
ΔG° ([5]; hUP1-R1P 150 μM): -8.0 ± 2.7 kcal/mol
ΔH° ([5]; hUP1-R1P 150 μM): -35 ± 2.1 kcal/mol
−TΔS (kcal/mol/deg) ([5]; hUP1-R1P 150 μM): 27 ± 9.1 kcal/mol
